{"source": "ChEMBL document CHEMBL1150086", "about": "“New steroid acids from Antrodia cinnamomea, a fungal parasite of Cinnamomum micranthum” (J Nat Prod, 1995)", "data": [{"system": "P388", "test": "Cytotoxicity against mouse P388 cells after 72 hrs", "type": "functional, cell-based", "settings": "P388, 72 h", "units": {"IC50": "µg/mL"}, "values": [{"compound": "CO[C@H](C(=O)[C@@H](O)[C@@H](C)O)[C@@H]1Cc2cc3cc(O[C@H]4C[C@@H](O[C@@H]5C[C@@H](O)[C@H](O)[C@@H](C)O5)[C@H](O)[C@@H](C)O4)c(C)c(O)c3c(O)c2C(=O)[C@H]1O[C@H]1C[C@@H](O[C@@H]2C[C@@H](O)[C@@H](O[C@@H]3C[C@](C)(O)[C@H](O)[C@@H](C)O3)[C@@H](C)O2)[C@H](O)[C@@H](C)O1", "note": "[PLICAMYCIN]", "IC50": 0.06}, {"compound": "C=C(CC[C@@H](C)[C@H]1CC[C@H]2C3=C(C(=O)C[C@]12C)[C@@]1(C)CCC(=O)[C@@H](C)[C@@H]1CC3=O)C(C)C(=O)O", "note": "(stereo partly drawn) [ZHANKUIC ACID A]", "IC50": 1.8}, {"compound": "C=C(CC[C@@H](C)[C@H]1CC[C@H]2C3=C(C(=O)[C@H](O)[C@]12C)[C@@]1(C)CC[C@@H](O)[C@@H](C)[C@@H]1CC3=O)C(C)C(=O)O", "note": "(stereo partly drawn) [ZHANKUIC ACID C]", "IC50": 5.4}]}]}
